The assay concerns the target SARS-CoV-2 3CLpro (Severe acute respiratory syndrome coronavirus 2, UniProt P0DTD1). Description: biochemical. Type of assay: biochemical. Details: Replicate_1 / Replicate_2 / mean / mean (LOPAC_screen_w_protease): unit not given here. The settings on record: for inhibition at 5 µM: 4 h.
[1] abbreviates: sheet LOPAC_screen_w_protease, primary screen of LOPAC1280 at 5 µM with protease, mean of the two replicates.
[2] abbreviates: sheet LOPAC_screen_w_protease, primary screen of LOPAC1280 at 5 µM with protease, replicate 1.
The mark [3] stands for this setting: sheet LOPAC_screen_w_protease, primary screen of LOPAC1280 at 5 µM with protease, replicate 2.
[4] abbreviates: sheet LOPAC_screen_w_protease, primary screen with protease, 5 µM, mean of two replicates, read-out: mean.
Setting [5] is: sheet LOPAC_screen_w_protease, primary screen with protease, 5 µM, replicate 1, read-out: Replicate_1.
[6] abbreviates: sheet LOPAC_screen_w_protease, primary screen with protease, 5 µM, replicate 2, read-out: Replicate_2.
[7] abbreviates: sheet LOPAC_screen_w_protease, primary screen with protease, mean of two replicates, read-out: mean.
[8] abbreviates: sheet LOPAC_screen_w_protease, primary screen with protease, replicate 1, read-out: Replicate_1.
Setting [9] is: sheet LOPAC_screen_w_protease, primary screen with protease, replicate 2, read-out: Replicate_2.
[10] abbreviates: sheet LOPAC_screen_w_protease, primary screen with protease, mean of two replicates.
The mark [11] stands for this setting: sheet LOPAC_screen_w_protease, primary screen with protease, replicate 1.
Where [12] appears, read: sheet LOPAC_screen_w_protease, primary screen with protease, replicate 2.
Setting [13] is: sheet LOPAC_screen_w_protease, LOPAC1280 primary screen with protease, 5 µM compound, mean of the two replicates.
The mark [14] stands for this setting: sheet LOPAC_screen_w_protease, LOPAC1280 primary screen with protease, 5 µM compound, replicate 1.
Setting [15] is: sheet LOPAC_screen_w_protease, LOPAC1280 primary screen with protease, 5 µM compound, replicate 2.
Where [16] appears, read: sheet LOPAC_screen_w_protease, primary screen with protease, 5 µM, mean of two replicates.
The mark [17] stands for this setting: sheet LOPAC_screen_w_protease, primary screen with protease, 5 µM, replicate 1.
Setting [18] is: sheet LOPAC_screen_w_protease, primary screen with protease, 5 µM, replicate 2.
Where [19] appears, read: LOPAC1280 primary screen with protease, 5 µM compound, mean of the two replicates.
[20] abbreviates: LOPAC1280 primary screen with protease, 5 µM compound, replicate 1, read-out: Replicate_1 (LOPAC_screen_w_protease).
Setting [21] is: LOPAC1280 primary screen with protease, 5 µM compound, replicate 2, read-out: Replicate_2 (LOPAC_screen_w_protease).

Counter-ions that a name gives are not always drawn. Like-named read-outs stand apart in the source and are kept apart here.

The molecule `N[C@H](C(=O)O)c1cc(O)cc(O)c1` [(S)-3,5-Dihydroxyphenylglycine] came in with a mean under setting [1] of 3.456. Besides, under setting [2], the Replicate_1 is reported as 2.928. Besides, the Replicate_2 under setting [3] was found to be 3.983.

`Oc1ccc2c3c1O[C@H]1c4[nH]c5ccccc5c4C[C@@]4(O)[C@@H](C2)N(CC2CC2)CC[C@]314` [Naltrindole hydrochloride]: the inhibition at 5 µM is 3.59% (read-out: Replicate_1), 2.54% (read-out: Replicate_2) and 3.06% (read-out: mean).

Take `O=c1nc2[nH]c3ccccc3nc-2c(=O)[nH]1` [Alloxazine]: the inhibition at 5 µM is 4.73% (sheet LOPAC_screen_w_protease, LOPAC1280 primary screen with protease, 5 µM compound, mean of the two replicates, read-out: mean); 4.91% (sheet LOPAC_screen_w_protease, LOPAC1280 primary screen with protease, 5 µM compound, replicate 1, read-out: Replicate_1); 4.55% (sheet LOPAC_screen_w_protease, LOPAC1280 primary screen with protease, 5 µM compound, replicate 2, read-out: Replicate_2).

In the case of `C=CCc1ccccc1OCC(O)CNC(C)C` (stereo not drawn) [Alprenolol hydrochloride], the inhibition at 5 µM reads like this: under setting [4], 0.137%; under setting [5], 0.164%; under setting [6], 0.11%.

As to `NC12CC3CC(CC(C3)C1)C2` [Amantadine hydrochloride], the inhibition at 5 µM runs as follows: under setting [7], 2.48%; under setting [8], 1.91%; under setting [9], 3.05%.

Consider `CSc1nc(N)c2ncn([C@@H]3O[C@H](COP(=O)([O-])OP(=O)([O-])OP(=O)([O-])[O-])[C@@H](O)[C@H]3O)c2n1.[Na+].[Na+].[Na+].[Na+]`, for which the mean under setting [10] was 2.299. Besides, under setting [11], the Replicate_1 is 2.88. In addition, the Replicate_2 under setting [12] is on record as 1.718.

In the case of `C[C@@H]1O[C@@H](O[C@H]2C[C@@H](O)[C@]3(CO)[C@H]4[C@H](O)C[C@]5(C)[C@@H]([C@@H]6COC(=O)C6)CC[C@]5(O)[C@@H]4CC[C@]3(O)C2)[C@H](O)[C@H](O)[C@H]1O` [Dihydroouabain], under setting [1], the mean is 3.947. For the same molecule, the Replicate_1 under setting [2] is on record as 5.984. This molecule also displayed a Replicate_2 under setting [3] of 1.91.

With `O=C(O)C1=CCCNC1` [Guvacine hydrochloride], the inhibition at 5 µM runs as follows: under setting [7], 2.3%; under setting [8], 4.35%; under setting [9], 0.255%.

Molecule `Cl.O=C(CCCN1CCC2(CC1)C(=O)N(CCc1ccc(N=C=S)cc1)CN2c1ccccc1)c1ccc(F)cc1` showed a mean under setting [13] of 5.051. Moreover, under setting [14], the Replicate_1 was 5.654. In addition, the Replicate_2 under setting [15] is reported as 4.448.

For the molecule `NC(=O)CN1CC(O)CC1=O` (stereo not drawn) [Oxiracetam], the inhibition at 5 µM reads like this: (sheet LOPAC_screen_w_protease, primary screen of LOPAC1280 at 5 µM with protease, mean of the two replicates, read-out: mean) 3.68%; (sheet LOPAC_screen_w_protease, primary screen of LOPAC1280 at 5 µM with protease, replicate 1, read-out: Replicate_1) 3.64%; (sheet LOPAC_screen_w_protease, primary screen of LOPAC1280 at 5 µM with protease, replicate 2, read-out: Replicate_2) 3.71%.

Consider `Cl.NCCNC(=O)c1ccc(Cl)cc1` [Ro 16-6491 hydrochloride], for which the mean under setting [16] is listed as -0.0598. In addition, under setting [17], the Replicate_1 stood at 0.2844. For the same molecule, the Replicate_2 under setting [18] is listed as -0.404.

Regarding `CS(=O)(=O)Nc1ccc([N+](=O)[O-])cc1Oc1ccccc1` [Nimesulide], the inhibition at 5 µM runs as follows: (read-out: Replicate_1) 4.73%; (read-out: Replicate_2) 4.45%; (read-out: mean) 4.59%.

`CCn1cc(C(=O)[O-])c(=O)c2ccc(C)nc21.[Na+]` [Nalidixic acid sodium]: the mean under setting [13] is reported as 4.611. This molecule yielded a Replicate_1 under setting [14] of 4.1091. This molecule had a Replicate_2 under setting [15] of 5.113.

As for `COc1ccc(C2CNC(=O)C2)cc1OC1CCCC1` (stereo not drawn) [Rolipram], the inhibition at 5 µM is -0.575% under setting [4], -0.0105% under setting [5] and -1.14% under setting [6].

`Cl.Nc1cc(Cl)c(N=C2NCCN2)c(Cl)c1` [p-Aminoclonidine hydrochloride] had a mean under setting [16] of 0.1922. Under setting [17], this molecule registered a Replicate_1 of 0.5913. Besides, the Replicate_2 under setting [18] was -0.207.

On to `CSc1ccc(C(=O)c2[nH]c(=O)[nH]c2C)cc1` [Enoximone], for which the inhibition at 5 µM (read-out: Replicate_1 (LOPAC screen with protease)) was determined as 7.98%, the inhibition at 5 µM (read-out: Replicate_2 (LOPAC screen with protease)) was 10% and the inhibition at 5 µM (read-out: mean (LOPAC screen with protease)) worked out at 9.01%.

Regarding (-)-3-Methoxynaltrexone hydrochloride, the mean under setting [13] turned out to be 5.384. This molecule returned a Replicate_1 under setting [14] of 4.034. The Replicate_2 under setting [15] came to 6.735.

In the case of `CCCCOC(=O)NS(=O)(=O)c1sc(CC(C)C)cc1-c1ccc(Cn2c(CC)nc3c(C)cc(C)nc32)cc1` [L-162,313], under setting [19], the “mean (LOPAC_screen_w_protease)” value worked out at 1.8394. Where the note is “LOPAC1280 primary screen with protease, 5 µM compound, replicate 1”, the “Replicate_1 (LOPAC_screen_w_protease)” value amounted to 2.383. For the same molecule, the “Replicate_2 (LOPAC_screen_w_protease)” value (LOPAC1280 primary screen with protease, 5 µM compound, replicate 2) is recorded as 1.2958.

For `N[C@@H](Cc1c[nH]c2ccc(O)cc12)C(=O)O` [5-Hydroxy-L-tryptophan], the inhibition at 5 µM by setting is: (sheet LOPAC_screen_w_protease, primary screen at 5 µM, mean of two replicates, read-out: mean (LOPAC screen with protease)) 14.5%; (sheet LOPAC_screen_w_protease, primary screen at 5 µM, replicate 1, read-out: Replicate_1 (LOPAC screen with protease)) 16.3%; (sheet LOPAC_screen_w_protease, primary screen at 5 µM, replicate 2, read-out: Replicate_2 (LOPAC screen with protease)) 12.8%.

Under setting [10], `Cl.Nc1ccn([C@@H]2O[C@H](CO)[C@@H](O)[C@@H]2O)c(=O)n1` gave a mean of 2.239. Besides, the Replicate_1 under setting [11] is 1.947. The molecule also gave a Replicate_2 under setting [12] of 2.5319.

Take `C[N+](C)(C)CCOC(=O)CBr.[Br-]` [Bromoacetylcholine bromide]: under setting [10], the mean was 2.401. This molecule also yielded a Replicate_1 under setting [11] of 0.6425. The molecule further yielded a Replicate_2 under setting [12] of 4.16.

`Brc1ccc([C@H]2CN3CCSC3=N2)cc1.O=C(O)C(=O)O` [S(-)-p-Bromotetramisole oxalate] yielded a mean under setting [16] of -0.07526. Further, under setting [17], the Replicate_1 came to 0.5493. The Replicate_2 under setting [18] is listed as -0.6998.

For the molecule `CC(C)(C)c1cc(C=C(C#N)C#N)cc(C(C)(C)C)c1O` [Tyrphostin A9], the “mean (LOPAC_screen_w_protease)” value worked out at 2.02. The inhibition at 5 µM (read-out: Replicate_1 (LOPAC_screen_w_protease)) was 2.73%. For the same molecule, under “read-out: Replicate_2 (LOPAC_screen_w_protease)”, the inhibition at 5 µM was 1.31%.

In the case of `CNC[C@H](O)c1ccc(O)c(O)c1` [(-)-Epinephrine bitartrate], the inhibition at 5 µM is, setting by setting: (read-out: Replicate_1) 5.37%; (read-out: Replicate_2) 0.847%; (read-out: mean) 3.11%.

Take `CN1CCN(CCCN2c3ccccc3Sc3ccc(C(F)(F)F)cc32)CC1` [Trifluoperazine dihydrochloride]: the inhibition at 5 µM under setting [4] is 0.187%, the inhibition at 5 µM under setting [5] worked out at 0.0814% and the inhibition at 5 µM under setting [6] stood at 0.293%.

Turning to `c1ccc(C2CN3CCSC3=N2)cc1` (stereo not drawn) [Tetramisole hydrochloride], the inhibition at 5 µM is 1.43% (read-out: Replicate_1), -2.01% (read-out: Replicate_2) and -0.287% (read-out: mean).

As to `C#CCN[C@H](C)Cc1ccccc1.Cl` [R-(-)-Desmethyldeprenyl hydrochloride], the “Replicate_1 (LOPAC_screen_w_protease)” value is recorded as 3.419, the “Replicate_2 (LOPAC_screen_w_protease)” value is 0.5348 and the “mean (LOPAC_screen_w_protease)” value came to 1.9771.

For the molecule `C=CCN1CC[C@]23c4c5ccc(O)c4O[C@H]2/C(=N/NC(=O)c2ccccc2)CC[C@@]3(O)[C@H]1C5` [Naloxone benzoylhydrazone], the inhibition at 5 µM reads like this: (read-out: Replicate_1) 2.85%; (read-out: Replicate_2) 4.95%; (read-out: mean) 3.9%.

The molecule `NC(CP(=O)(O)O)C(=O)O` (racemic) [(±)-2-Amino-3-phosphonopropionic acid] gave a mean (sheet LOPAC_screen_w_protease, primary screen with protease, compound at 5 µM, mean of two replicates) of 3.099. Also, under “sheet LOPAC_screen_w_protease, primary screen with protease, compound at 5 µM, replicate 1”, the Replicate_1 came out at 4.251. The same molecule registered a Replicate_2 (sheet LOPAC_screen_w_protease, primary screen with protease, compound at 5 µM, replicate 2) of 1.946.

`CC(C)[C@@H]1NC(=O)[C@H](CCCCN)NC(=O)[C@@H](Cc2c[nH]c3ccccc23)NC(=O)[C@H](Cc2ccc(O)cc2)NC(=O)[C@H](C)N(C)C(=O)[C@H](Cc2ccccc2)NC1=O` [Seglitide]: the inhibition at 5 µM is 3.58% under setting [20] and -0.291% under setting [21]. Further, the “mean (LOPAC_screen_w_protease)” value (LOPAC1280 primary screen with protease, 5 µM compound, mean of two replicates) came to 1.643.

As to `CC(CCc1ccc(O)cc1)NCCc1ccc(O)c(O)c1` (stereo not drawn) [Dobutamine hydrochloride], the inhibition at 5 µM reads like this: under setting [20], 2.05%; under setting [21], 2.06%. In addition, the “mean (LOPAC_screen_w_protease)” value under setting [19] is on record as 2.053.

Values taken from article PMC7587356, “High-Throughput Screening for Inhibitors of the SARS-CoV-2 Protease Using a FRET-Biosensor” (Molecules, 2020).
